Test results from patent US11859014B2, “Peptidomimetics for the treatment of Norovirus infection” (EMORY UNIVERSITY, priority 2016, dated 2024).

Tests used:
[1] = Cellular toxicity assay in Vero cells; type: cell-based; settings: African green monkey, read-out: Cytotoxicity, CC50 (μM) VERO
Description: (§1) The toxicity of the compounds was assessed in Vero, human PBM, CEM (human lymphoblastoid), MT-2, and HepG2 cells, as described previously (see Schinazi R. F., Sommadossi J.-P., Saalmann V., Cannon D. L., Xie M.-Y., Hart G. C., Smith G. A. & Hahn E. F. Antimicrob. Agents Chemother. 1990, 34, 1061-67). Cycloheximide was included as positive cytotoxic control, and untreated cells exposed to solvent were included as negative controls. The cytotoxicity CC50 was obtained from the concentration-response curve using the median effective method described previously (see Chou T.-C. & Talalay P. Adv. Enzyme Regul. 1984, 22, 27-55; Belen'kii M. S. & Schinazi R. F. Antiviral Res. 1994, 25, 1-11).

[2] = system: NoV replicon RNA in HG23 cells (derived from Huh-7 cells); test: Norwalk virus replicon assay in HG23 cells; type: cell-based; settings: 120 h, five days incubation; for EC50: read-out: Anti-NoV activity (μM) EC50; for EC90: read-out: Anti-NoV activity (μM) EC90
Description: Norwalk virus replicon assays were performed as reported by Constantini et al. (Antivir Ther 2012, 17, 981-991). HG23 cells (derived from Huh-7 cells) containing NoV replicon RNA are seeded at a density of 3,000 cells/well in 96-well plates and incubated at 37° C. and 5% CO2 overnight. Compounds were tested at concentrations ranging from 0.1 to 100 μM. Compounds were added in triplicate to 80 to 90% confluent monolayers and incubated at 37° C. and 5% CO2. Untreated cells were included in each plate. Following five days incubation (37° C., 5% CO2), total cellular RNA was isolated with RNeasy96 extraction kit from Qiagen. Replicon RNA and an internal control (TaqMan rRNA control reagents, Applied Biosystems) were amplified in a single step.
The median effective concentrations (EC50) ranges of several of the compounds described herein against NoV are shown in Table 3: […]

[3] = molecular target: Norovirus GI.1 (Norwalk virus) protease (Norovirus (strain Human/NoV/United States/Norwalk/1968/GI) (Hu/NV/NV/1968/US), UniProt Q83883); test: FRET based enzyme assay, Norovirus GI.1 protease; type: biochemical; settings: 37° C.
Sequence of Norovirus GI.1 (Norwalk virus) protease (Q83883 1101-1281): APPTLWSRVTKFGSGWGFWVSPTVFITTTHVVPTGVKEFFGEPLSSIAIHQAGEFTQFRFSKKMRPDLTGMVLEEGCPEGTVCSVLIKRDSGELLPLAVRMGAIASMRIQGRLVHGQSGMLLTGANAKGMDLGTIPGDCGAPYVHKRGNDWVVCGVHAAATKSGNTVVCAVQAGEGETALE
Description: Norovirus GI.1 (Norwalk virus) protease were tested for enzymatic activity using a fluorescence resonance energy transfer (FRET) based enzyme assay. Norovirus GI.1 represents 5 to 10% of the clinical isolates. The FRET kinetic enzyme assays were performed as follows. The purified viral protease was diluted in reaction buffer (50 mM HEPES, pH 8.0, 120 mM NaCl, 0.4 mM EDTA, 20% glycerol, and 4 mM DTT) to a final concentration of 128 nM. Each reaction was initiated by addition of FRET substrate [(HiLyte Fluor 488) -[…]-(QXL520)]. To determine kinetic parameters, the FRET substrate was serially diluted to final concentrations of 100 μM to 49 nM and added to the reaction. The final reaction volume was 100 μL. The fluorescence emitted by substrate cleavage was monitored by a microplate reader (SpectraMax M5, Molecular Devices, Sunnyvale, CA, USA) at a 488 nm excitation wavelength with an emission wavelength of 520 nm. Readings were taken every minute for 20 minutes, and the reactions were performed at 37° C. In order to convert RFU into μM, a standard curve was created by measuring fluorescence of free HiLyte Fluor 488, which was serially diluted from 250 nM to 3.9 nM. All data were plotted and analyzed with GraphPad Prism v. 6.07.

[4] = Cellular toxicity assay in PBM cells; type: cell-based; settings: human, read-out: Cytotoxicity, CC50 (μM) PBM
Description: as §1

[5] = Cellular toxicity assay in CEM cells; type: cell-based; settings: human, read-out: Cytotoxicity, CC50 (μM) CEM
Description: as §1

[6] = Cellular toxicity assay in Huh7 cells; type: cell-based; settings: human, read-out: Cytotoxicity, CC50 (μM) Huh7
Description: [The procedure below names another cell line; the source lists this cell line under the same test.] as §1

Minerva virus protease = Minerva virus protease (Norovirus GII.4 (Minerva virus), UniProt P54634); test: FRET enzyme kinetic assay, NoV GII.4 Minerva virus protease; type: biochemical; settings: Minerva virus (GII.4) protease; inhibitor incubated with enzyme 90 minutes at 37° C. before FRET substrate
Sequence of Minerva virus protease (P54634 whole entry, looked up): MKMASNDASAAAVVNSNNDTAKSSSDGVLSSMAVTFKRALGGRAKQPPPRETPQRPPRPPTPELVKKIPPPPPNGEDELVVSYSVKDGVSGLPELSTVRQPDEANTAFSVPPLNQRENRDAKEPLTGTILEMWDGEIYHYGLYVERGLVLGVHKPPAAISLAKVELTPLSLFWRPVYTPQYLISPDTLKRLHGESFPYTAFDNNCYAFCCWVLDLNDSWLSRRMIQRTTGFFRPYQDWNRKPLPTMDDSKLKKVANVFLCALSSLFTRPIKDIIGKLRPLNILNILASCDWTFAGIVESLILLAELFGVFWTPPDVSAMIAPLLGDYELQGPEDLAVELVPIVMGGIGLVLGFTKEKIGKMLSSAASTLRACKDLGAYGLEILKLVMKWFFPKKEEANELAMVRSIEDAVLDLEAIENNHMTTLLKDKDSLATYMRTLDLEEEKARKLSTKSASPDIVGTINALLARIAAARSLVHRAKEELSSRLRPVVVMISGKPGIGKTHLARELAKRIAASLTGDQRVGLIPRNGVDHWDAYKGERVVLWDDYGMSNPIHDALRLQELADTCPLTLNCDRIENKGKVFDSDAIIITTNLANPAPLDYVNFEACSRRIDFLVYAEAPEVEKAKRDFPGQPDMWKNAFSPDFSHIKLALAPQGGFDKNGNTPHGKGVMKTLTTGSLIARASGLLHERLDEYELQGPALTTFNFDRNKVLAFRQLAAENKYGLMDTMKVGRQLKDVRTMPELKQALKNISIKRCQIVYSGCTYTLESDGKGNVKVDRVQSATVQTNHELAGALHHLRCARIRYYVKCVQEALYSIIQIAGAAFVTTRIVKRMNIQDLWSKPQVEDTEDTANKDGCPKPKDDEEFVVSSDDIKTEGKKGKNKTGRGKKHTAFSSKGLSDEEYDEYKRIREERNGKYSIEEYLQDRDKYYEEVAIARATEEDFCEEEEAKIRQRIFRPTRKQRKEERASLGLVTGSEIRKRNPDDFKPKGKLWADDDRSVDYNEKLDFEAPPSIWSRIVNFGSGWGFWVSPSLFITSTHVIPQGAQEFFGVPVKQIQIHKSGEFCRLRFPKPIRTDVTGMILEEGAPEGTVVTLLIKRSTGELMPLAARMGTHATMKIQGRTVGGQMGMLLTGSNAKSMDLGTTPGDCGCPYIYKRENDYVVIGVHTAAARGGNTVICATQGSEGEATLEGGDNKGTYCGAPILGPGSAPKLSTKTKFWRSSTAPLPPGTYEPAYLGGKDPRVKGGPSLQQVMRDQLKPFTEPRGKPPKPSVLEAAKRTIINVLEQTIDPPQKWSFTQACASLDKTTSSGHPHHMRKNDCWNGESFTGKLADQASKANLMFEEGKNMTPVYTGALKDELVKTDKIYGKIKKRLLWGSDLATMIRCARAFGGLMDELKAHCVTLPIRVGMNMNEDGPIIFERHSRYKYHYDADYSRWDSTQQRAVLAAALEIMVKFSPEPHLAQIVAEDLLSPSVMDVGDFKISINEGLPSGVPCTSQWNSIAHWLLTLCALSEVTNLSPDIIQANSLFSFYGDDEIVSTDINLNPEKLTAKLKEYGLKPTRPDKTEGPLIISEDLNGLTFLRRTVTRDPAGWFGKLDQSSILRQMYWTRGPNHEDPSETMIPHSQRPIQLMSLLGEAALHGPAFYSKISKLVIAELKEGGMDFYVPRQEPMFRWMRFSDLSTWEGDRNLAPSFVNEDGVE
Description: The ability of these compounds to inhibit the NoV, specifically Minerva virus protease catalytic Cys139 covalently (IC50 and Ki) was determined with an enzyme kinetic assay. NoV strains, specifically GII.4 such as the Minerva virus are responsible for causing the majority (˜80%) of infections in humans. The activity of the inhibitors was evaluated by monitoring the cleavage of a FRET substrate every one minute for 20 minutes (excitation/emission: 488/520 nm) using a SpectraMax M5 microplate reader (Molecular Devices, Sunnyvale CA). Serial dilutions of each inhibitor were incubated with enzyme for 90 minutes at 37° C. before addition of the FRET substrate to ensure complete inactivation. Commercially available protease inhibitors chymostatin and rupintrivir were used as controls.

| SMILES | CC50 [1] [µM] | EC50 [2] [µM] | EC90 [2] [µM] | IC50 [3] [µM] | CC50 [4] [µM] | CC50 [5] [µM] | CC50 [6] [µM] | Ki [3] [µM] | IC50 (Minerva virus protease) [µM] | CC50 ([5]; CEM lymphoblastoid cells) [µM] |
| --- | --- | --- | --- | --- | --- | --- | --- | --- | --- | --- |
| CC(C)C[C@H](NC(=O)[C@H](Cc1cccc2ccccc12)NC(=O)OCc1ccccc1)C(=O)N[C@@H](C[C@@H]1CCNC1=O)C1OC1S(C)(=O)=O (stereo partly drawn) [Compound 67, Benzyl ((2S)-1-(((2S)-4-methyl-1-(((1S)-1-(3-(methylsulfonyl)oxiran-2-yl)-2-((S)-2-oxopyrrolidin-3-yl)ethyl)amino)-1-oxopentan-2-yl)amino)-3-(naphthalen-1-yl)-1-oxopropan-2-yl)carbamate] | > 100 | 4.33 | > 20 | > 10 | > 100 | 64 | – | – | – | – |
| CC(C)C[C@H](NC(=O)[C@H](Cc1cccc2ccccc12)NC(=O)OCc1ccccc1)C(=O)N[C@H](C=O)C[C@@H]1CCCNC1=O [Compound 19] | 20 | 0.07 | 0.27 | – | 24 | 32 | > 10 | – | – | – |
| CC(C)C[C@H](NC(=O)[C@H](Cc1cccc2ccccc12)NC(=O)OCc1ccccc1)C(=O)N[C@H](/C=C/C=O)C[C@@H]1CCNC1=O [Compound 64, Benzyl ((S)-1-(((S)-4-methyl-1-oxo-1-(((S,E)-5-oxo-1-((S)-2-oxopyrrolidin-3-yl)pent-3-en-2-yl)amino)pentan-2-yl)amino)-3-(naphthalen-1-yl)-1-oxopropan-2-yl)carbamate] | – | – | – | 10 | – | – | – | – | – | – |
| CC(C)C[C@H](NC(=O)[C@H](Cc1cccc2ccccc12)NC(=O)OCc1ccccc1)C(=O)N[C@@H](C[C@@H]1CCCNC1=O)C(=O)C(F)(F)F [Compound 39, Benzyl ((S)-1-(((S)-4-methyl-1-oxo-1-(((S)-4,4,4-trifluoro-3-oxo-1-((S)-2-oxopiperidin-3-yl)butan-2-yl)amino)pentan-2-yl)amino)-3-(naphthalen-1-yl)-1-oxopropan-2-yl)carbamate] | 11 | – | – | > 10 | 39 | 2 | 14 | – | – | – |
| CC(C)C[C@H](NC(=O)[C@H](Cc1cccc2ccccc12)NC(=O)OCc1ccccc1)C(=O)N[C@@H](C[C@@H]1CCCNC1=O)C(O)S(=O)(=O)O (stereo partly drawn) [Compound 37, Sodium (5S,8S,11S)-12-hydroxy-8-isobutyl-5-(naphthalen-1-ylmethyl)-3,6,9-trioxo-11-(((S)-2-oxopiperidin-3-yl)methyl)-1-phenyl-2-oxa-4,7,10-triazadodecane-12-sulfonate] | > 100 | – | – | 0.654 ± 0.285 | 44 | 18 | 11 | 2.24 ± 0.438 | 2.63 ± 1.04 | – |
| CC(C)C[C@H](NC(=O)[C@H](Cc1cccc2ccccc12)NC(=O)c1cnccn1)C(=O)N[C@H](C=O)C[C@@H]1CCCNC1=O [Compound 23] | > 100 | 0.07 | 0.33 | – | > 100 | 39 | > 10 | – | – | – |
| CC(C)C[C@H](NC(=O)[C@H](Cc1ccc(O)cc1)NC(=O)OCc1ccccc1)C(=O)N[C@H](C=O)C[C@@H]1CCCNC1=O [Compound 11, Benzyl ((S)-3-(4-hydroxyphenyl)-1-(((S)-4-methyl-1-oxo-1-(((S)-1-oxo-3-((S)-2-oxopiperidin-3-yl)propan-2-yl)amino)pentan-2-v)amino)-1-oxopropan-2-yl)carbamate] | > 100 | 0.7 | 2.4 | – | > 100 | > 100 | > 10 | – | – | – |
| CC(C)C[C@H](NC(=O)[C@H](Cc1cccc2ccccc12)NC(=O)OCc1ccccc1)C(=O)N[C@@H](C[C@@H]1CCCNC1=O)C(O)C(F)(F)F (stereo partly drawn) [Compound 38, Benzyl ((2S)-1-(((2S)-4-methyl-1-oxo-1-(((2S)-4,4,4-trifluoro-3-hydroxy-1-((S)-2-oxopiperidin-3-yl)butan-2-yl)amino)pentan-2-yl)amino)-3-(naphthalen-1-yl)-1-oxopropan-2-yl)carbamate] | 22 | – | – | > 10 | 18 | – | 13 | – | – | 6 |
| O=C(N[C@@H](Cc1cccc2ccccc12)C(=O)N[C@@H](Cc1ccccc1)C(=O)N[C@H](CCl)C[C@@H]1CCCNC1=O)OCc1ccccc1 [Compound 84, Benzyl ((S)-1-(((S)-1-(((S)-1-chloro-3-((S)-2-oxopiperidin-3-yl)propan-2-yl)amino)-1-oxo-3-phenylpropan-2-yl)amino)-3-(naphthalen-1-yl)-1-oxopropan-2-yl)carbamate] | 51.7 | > 10 | – | > 100 | 75 | – | – | – | – | 26.6 |
| CC(C)C[C@H](NC(=O)[C@H](Cc1cccc2ccccc12)NC(=O)c1cnccn1)C(=O)N[C@H](C=O)C[C@@H]1CCNC1=O [Compound 29] | > 100 | 0.08 | 0.46 | – | > 100 | 38 | > 10 | – | – | – |
| CC(C)C[C@H](NC(=O)[C@H](Cc1ccc(F)cc1)NC(=O)OCc1ccccc1)C(=O)N[C@H](C=O)C[C@@H]1CCCNC1=O [Compound 35, Benzyl ((S)-3-(4-fluorophenyl)-1-(((S)-4-methyl-1-oxo-1-(((S)-1-oxo-3-((S)-2-oxopiperidin-3-yl)propan-2-yl)amino)pentan-2-yl)amino)-1-oxopropan-2-yl)carbamate] | > 100 | – | – | 0.096 ± 0.011 | 52 | – | 60 | 0.465 ± 0.201 | – | 35 |
| CC(C)C[C@H](NC(=O)[C@H](Cc1cccc2ccccc12)NC(=O)OCc1ccccc1)C(=O)N[C@H](/C=C(\C#N)C(N)=O)C[C@@H]1CCCNC1=O [Compound 36, Benzyl ((S)-1-(((S)-1-(((S,E)-5-amino-4-cyano-5-oxo-1-((S)-2-oxopiperidin-3-yl)pent-3-en-2-yl)amino)-4-methyl-1-oxopentan-2-yl)amino)-3-(naphthalen-1-yl)-1-oxopropan-2-yl)carbamate] | > 100 | – | – | 0.593 ± 0.124 | 45 | 9 | 8 | 1.7 ± 0.332 | 1.17 ± 0.333 | – |
| O=C[C@H](C[C@@H]1CCCNC1=O)NC(=O)[C@H](Cc1ccccc1)NC(=O)[C@H](Cc1cccc2ccccc12)NC(=O)OCc1ccccc1 [Compound 83, Benzyl ((S)-3-(naphthalen-1-yl)-1-oxo-1-(((S)-1-oxo-1-(((S)-1-oxo-3-((S)-2-oxopiperidin-3-yl)propan-2-yl)amino)-3-phenylpropan-2-yl)amino)propan-2-yl)carbamate] | 41.2 | 0.33 | 0.91 | 0.084 ± 0.019 | 48.7 | – | – | 0.256 ± 0.057 | – | 17 |
